Measured values as given in patent US11726088B2, “Sirtuin 4 (SIRT4) lipoamidase activity and uses thereof” (THE TRUSTEES OF PRINCETON UNIVERSITY, priority 2014, dated 2023).
Primed or numbered codes have the meaning given here. Ends that are not written are not given here. Peptide text beside a SMILES is read from it. * marks the point of attachment. ξ: configuration not given here. Biotin = O=C1N[C@H]2[C@H](CS[C@H]2CCCCC(=O)*)N1; lipoyl″ = O=C(CCCC[C@@H]1CCSS1)*; Lipoyl(6ξ) = O=C(CCCCC1CCSS1)*

Columns and labels:
SIRT4 [1] = target: T1, SIRT4 (Homo sapiens, UniProt Q9Y6E7); test: HPLC-based SIRT4 kinetics assays (steady-state, acyl-modified peptide substrates); type: biochemical; details: SIRT4 enzyme concentration = 5 μM; NAD 1 mM; 25° C.
T1 construct: 6xHis (followed by human rhinovirus 3C protease site) (N); made in house; host or cells: E. coli BL21(DE3), co-expressed with GroEL and GroES
T1 sequence (Q9Y6E7 33-314): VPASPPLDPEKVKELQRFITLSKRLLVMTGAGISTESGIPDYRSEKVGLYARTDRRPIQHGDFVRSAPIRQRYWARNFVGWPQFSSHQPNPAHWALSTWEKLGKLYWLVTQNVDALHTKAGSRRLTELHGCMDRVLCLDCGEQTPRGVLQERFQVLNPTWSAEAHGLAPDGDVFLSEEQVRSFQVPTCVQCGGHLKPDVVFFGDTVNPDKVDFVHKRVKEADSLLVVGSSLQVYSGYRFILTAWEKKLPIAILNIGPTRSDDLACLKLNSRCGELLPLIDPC
Source text: Recombinant SIRT4 protein expression and purification. N-terminally truncated human Sirt4 (33-314 of SEQ ID NO: 2) was cloned into a derivative of pET-15b containing a human rhinovirus 3C Protease cleavage site in place of its thrombin cleavage site. 6×His-Sirt4 was co-expressed with GroEL and GroES in BL21(DE3) E. coli in order to promote proper protein folding. Protein was purified using immobilized-metal affinity chromatography (IMAC) followed by anion-exchange chromatography to remove associated folding chaperones. For some experiments the His-tag was removed using 3C protease. Protein was concentrated, snap frozen in N2(l), and stored at −80° C. HPLC-based SIRT4 kinetics assays. SIRT4 kinetic assays were essentially performed as described by others^3,4. Briefly, enzyme reactions (20 μL) were performed in 50 mM Tris, pH 8.0, containing 5 μM recombinant SIRT4 and varying concentrations (0 to 2500 μM) of H3K9- or DLAT-modified peptides with either acetyl-lysine, biotinyl-lysine, or lipoyl-lysine. Reactions were initiated by addition of NAD (1 mM) and incubated at 25° C. for between 30-120 min, depending on substrate-specific reaction rates and to maintain steady-state conditions. Reactions were quenched with formic acid to a final concentration of 0.5% (v/v) and analyzed by HPLC-UV detection (Ultimate 3000 RSLC/VWD-3400). Substrate and product were separated by reverse-phase chromatography (Acclaim PepMap RSLC, 75 μm×15 cm) at 0.75 μL/min. Product concentration was measured by peak integration of A280 signals. Initial reaction velocities were determined in at least duplicate and fit to a modified Briggs-Haldane equation, which substituted kcat×[SIRT4] for Vmax and allowed determination of kinetic parameters, kcat, Km and kcat/Km and their associated error (±SEM), using GraphPad Prism 5. SIRT4's catalytic efficiency towards the various acyl-modified peptide substrates was assessed (Table 1 below).

SIRT4 [2] = target: T1, SIRT4; test: LC-MS-based in vitro peptide deacylation assay; type: biochemical; details: 5 μM SIRT4, 10 uM peptide, with NAD, 1 hr at 37° C.
Source text: Recombinant SIRT4 protein expression and purification. N-terminally truncated human Sirt4 (33-314 of SEQ ID NO: 2) was cloned into a derivative of pET-15b containing a human rhinovirus 3C Protease cleavage site in place of its thrombin cleavage site. 6×His-Sirt4 was co-expressed with GroEL and GroES in BL21(DE3) E. coli in order to promote proper protein folding. Protein was purified using immobilized-metal affinity chromatography (IMAC) followed by anion-exchange chromatography to remove associated folding chaperones. For some experiments the His-tag was removed using 3C protease. Protein was concentrated, snap frozen in N2(l), and stored at −80° C.
LC-MS-based in vitro peptide deacylation assay. The ability of SIRT4 to hydrolyze various acyl-lysine modifications was measured using LC-MS. In 20 μL reaction volume, 10 uM peptide (lipoyl-, biotinyl-, or acetyl-lysine) was incubated with increasing concentrations of SIRT4 (0.5 μM, 2.5 μM, and 5 μM), with or without NAD, in 50 mM TrisHCl, pH 8, 137 mM NaCl, 2.7 mM KCl and 1 mM MgCl2, for 1 hr at 37° C. Reactions were quenched with 25 μL of 2% TFA and an internal control peptide was spiked in to monitor for run-to-run variability. Reaction products were desalted, eluted, concentrated and analyzed by nano-LC-MS/MS, as above, but altered LC gradients. A 30 min linear gradient from 4-40% B was used for all peptides, except for lipoyl-lysine biological peptides, which used a 12-70% B linear gradient. Data were imported into Skyline software (version 2.1) to obtain precursor extracted ion chromatographams (XICs) using the following settings: Isotope Count, 3; precursor mass analyzer, Orbitrap; Resolving power, 60,000 @ 400 Th. The retention times of substrate (modified) and product (unmodified) peptides were confirmed by fragmentation spectra and peak integration boundaries were manually inspected. Three biological replicates were analyzed for each reaction.
The lipoamide cofactor bound to E2 (transferase enzymes) is required for dehydrogenase complex activity (FIG. 1b). Given that other mitochondrial SIRTs can hydrolyze various […] group lysine modifications^3,4 and that all PDHC components were present in our SIRT4 isolation, we speculated that E2 dehydrogenase components may be biological substrates of SIRT4, and that SIRT4 may directly hydrolyze the lipoamid modification. To test this we screened the in vitro activity of recombinant SIRT4 against differentially-modified synthetic peptides (FIG. 10). Firstly, SIRT4 activity towards acyl-modified H3K9 peptides (SEQ ID NOs: 3-5) was measured using a liquid-chromatography (LC)-MS-based deacylation assay. SIRT4 was incubated with H3K9 peptides modified with acetyl-lysine (SEQ ID NO: 5), biotinyl-lysine (SEQ ID NO: 4) or lipoyl-lysine (SEQ ID NO: 3), in the presence or absence of NAD. Following reaction, the remaining unreacted substrates and newly generated unmodified peptides were identified and quantified by LC-MS (FIG. 2A, 2G-2I and FIG. 5). […] To compare the relative preference of SIRT4 for these different substrates, we used extracted ion chromatograms to quantify unreacted substrate (S) and product (P) amounts from all reactions, and represented the percentage of unmodified peptide generated (FIG. 2H). […] The relative amount of unmodified product generated using 5 μM SIRT4 was 11% (lipoyl—SEQ ID NO: 3), 3% (biotinyl—SEQ ID NO: 4) and 0.3% (acetyl—[…]) (FIG. 2B and FIG. 2H, H3K9 substrates). […]

Km (SIRT4 [1]) | relative amount of unmodified product generated (SIRT4 [2]) | Compound
> 2500 µM | – | MCD K471 Acetyl: synthetic MCD K471 peptide SYLGSKNIKASEW with acetyl-lysine (SEQ ID NO: 29) (also: acetyl-lysine at K471, K6 or K9 not given here)
> 2500 µM | 0.3% | CC(=O)NCCCC[C@H](NC(=O)[C@H](CCCNC(=N)N)NC(=O)[C@H](C)NC(=O)[C@@H](NC(=O)[C@H](CCC(N)=O)NC(=O)[C@@H](N)CCCCN)[C@@H](C)O)C(=O)N[C@@H](CO)C(=O)N[C@H](C(=O)NCC(=O)NCC(=O)N[C@@H](Cc1c[nH]c2ccccc12)C(=O)N[C@@H](Cc1c[nH]c2ccccc12)C(=O)O)[C@@H](C)O [H3 K9 Acetyl] (H-KQTARK(Ac)STGGWW-OH)
> 2500 µM | – | CC[C@H](C)[C@H](NC(=O)[C@@H](NC(=O)[C@H](C)NC(=O)[C@H](CCCCNC(C)=O)NC(=O)[C@H](CC(=O)O)NC(=O)[C@@H](NC(=O)[C@H](CCC(=O)O)NC(=O)[C@@H](NC(=O)[C@@H](N)CCC(=O)O)[C@@H](C)CC)[C@@H](C)O)[C@@H](C)O)C(=O)NCC(=O)N[C@@H](Cc1c[nH]c2ccccc12)C(=O)O [DLAT K259 Acetyl] (H-EIETDK(Ac)ATIGW-OH)

Continued, compound first:

Compound | Km (SIRT4 [1]) | relative amount of unmodified product generated (SIRT4 [2])
C[C@H](NC(=O)[C@@H](NC(=O)[C@H](CCC(N)=O)NC(=O)[C@@H](N)CCCCN)[C@@H](C)O)C(=O)N[C@@H](CCCNC(=N)N)C(=O)N[C@@H](CCCCNC(=O)CCCCC1CCSS1)C(=O)N[C@@H](CO)C(=O)N[C@H](C(=O)NCC(=O)NCC(=O)N[C@@H](Cc1c[nH]c2ccccc12)C(=O)N[C@@H](Cc1c[nH]c2ccccc12)C(=O)O)[C@@H](C)O (stereo partly drawn) [H3 K9 Lipoyl] (H-KQTARK(Lipoyl(6ξ))STGGWW-OH) | 814 ± 163 µM | 11%
C[C@H](NC(=O)[C@@H](NC(=O)[C@H](CCC(N)=O)NC(=O)[C@@H](N)CCCCN)[C@@H](C)O)C(=O)N[C@@H](CCCNC(=N)N)C(=O)N[C@@H](CCCCNC(=O)CCCC[C@@H]1SC[C@@H]2NC(=O)N[C@@H]21)C(=O)N[C@@H](CO)C(=O)N[C@H](C(=O)NCC(=O)NCC(=O)N[C@@H](Cc1c[nH]c2ccccc12)C(=O)N[C@@H](Cc1c[nH]c2ccccc12)C(=O)O)[C@@H](C)O [H3 K9 Biotinyl] (H-KQTARK(Biotin)STGGWW-OH) | 719 ± 79 µM | 3%
PDHX: lipoyl-modified PDHX peptide substrate (SEQ ID NO: 12); unmodified product is SEQ ID NO: 13 (EIETDK(lipoyl″)AVVTWW) | – | 42%
